Laboratory results reported in US4524077A, “Liquid 2-hydroxy-4-methylthiobutyric acid and process for the preparation thereof” (priority 1983, dated 1985).

How the values were obtained:
[1] = Gardner color of HMBA product; assay type: physicochemical
Text: This product has a total HMBA content, including monomer, dimers, and oligomers, of between about 80% and about 95% by weight, preferably 85% to 90% by weight, and a water content of between about 5% and about 20%, preferably between 10% and about 15% by weight. […] The ratio of the weight proportion of HMBA monomer to the weight proportion of the sum of dimers and other oligomers thereof is at least about 2.8, preferably at least about 5.7.

[2] = Extraction of diluted HCl hydrolyzate at 70° C. (Table VIII); assay type: physicochemical; conditions: HMBA extract/raffinate, HCl hydrolyzate diluted 100:40 with water
Text: The phases were separated and analyzed for HMBA.
This work up and extraction was repeated for 1-butanol.

Structure (SMILES) | Gardner color ([1]; 88% by weight solution in water, Example 1, first method (methyl propyl ketone and water extraction)) | Color (Gardner) ([1]; Example 6, Product) | Gardner color ([1]; Example 13, bottom product, 88.9% HMBA) | Distribution Coefficient [2]
CSCCC(O)C(=O)O (racemic) [HMBA, 2-hydroxy-4-methylthiobutyric acid] | 5 | 3 | 4 | –
CC(=O)CC(C)C [Methyl isobutyl ketone] | – | – | – | 2.4
